Measured values: PMC12560828, “Chemical structure drives developmental toxicity of alkyl-substituted naphthalenes in zebrafish” (Environment international, 2025)
“And” between values parts separate entries of the source, which are not always exact repeats. Equal values may be shown once. Read-outs that look alike come from different tables or passages of the source.

Tests used:
[1] = system: zebrafish larvae, 120 hpf; experiment: Larval photomotor response (LPR) assay after vial exposure; assay type: in vivo, Danio rerio; conditions: LPR
Description: (§1) When embryos were 6 hpf they were bleached in groups of 1000 or less to limit bacterial growth in sealed vials. Embryos were placed in a strainer for transfer between solutions in 500 mL containers. […] Pools of eight embryos were placed into 2 mL clear glass screw cap exposure vials with polyvinyl-faced pulp liner (Avantar Radnor, PA, United States) using a glass Pasteur pipette. Excess EM was removed, and 2 mL of fresh EM was immediately added. A total of 10 uL of 200x working stock (in DMSO) was added to each vial, then immediately capped and inverted three times to mix. […] Vials were loaded into a custom 3D printed vial holder for slow end-over-end rotation in a dark 28 °C incubator overnight. […] At 24 hpf, embryos were removed from exposure vials and singulated into 96-well plates loaded with 100 μL chemical-free EM. Each exposure vial group was maintained in plate columns. After loading into 96-well plates, embryos were assessed for 24-hour mortality. For the remainder of the exposure, plates were kept stationary at 28 °C in the dark, until 120 hpf when morphology screening and the larval photo motor response (LPR) assay were conducted, section 2.3.2 and section 2.3.3, respectively.
Each treatment group was replicated over four vials, resulting in 32 embryos per treatment, split over two replicate 96-well plates per chemical. […] Vial groups of plated larvae were tracked to assess the impact of the vial on the results. All reported concentrations were nominal water concentrations and are included in SI-T4.
The LPR assay was conducted at 120 hpf. […] Larval movement was tracked throughout minutes 6–24. Animals dead or morphologically abnormal were excluded from the analysis, and if more than 30 % of the wells in a treatment group were excluded, the treatment was removed.
Movement values were binned into 6s intervals, log normalized and used to calculate area under the curve (AUC). AUC values from the first cycle after calibration were used to calculate the LEL for each period (light and dark).

[2] = system: early life stage zebrafish (Danio rerio) embryos; experiment: Developmental toxicity morphology screen, sealed rotating vial exposure; assay type: in vivo; design: bmd, MO24 / bmd, MORT / bmd, ANY_ / bmd, AXIS / bmd, CRAN / bmd, EDEM / bmd, LTRK / bmd, MUSC / bmdL, ANY_ / bmdU, ANY_ / bmdL, AXIS / bmdU, AXIS / bmdL, CRAN / bmdU, CRAN / bmdL, EDEM / bmdU, EDEM / bmdL, LTRK / bmdU, LTRK / bmdL, MO24 / bmdU, MO24 / bmdL, MORT / bmdU, MORT: unit not given here; conditions: for morphological effects (BMC50 for any morphological endpoint): 0-50 μM, result in words
Description: as §1
Each treatment group was replicated over four vials, resulting in 32 embryos per treatment, split over two replicate 96-well plates per chemical. […] All reported concentrations were nominal water concentrations and are included in SI-T4.
At 24 hpf embryos were assessed for mortality (MO24). At 120 hpf embryos were assessed for abnormality in […] morphological endpoints: mortality (MORT), edemas (EDEM), bent axis (AXIS), touch response (TCHR), craniofacial (CRAN), muscular/cardiovascular (MUSC), lower trunk (LRTK), brain (BRAN), skin (SKIN), and notochord malformations (NC). Morphological assessments were made by a team of three to four individuals. The team was blinded to the identity, plate layout, and concentrations of the chemicals, thereby minimizing bias in morphological screening assessment. To ensure the assessments were consistent, concentration–response reproducibility of a parathion ethyl quality control plate was performed along with each experimental exposure set up. Details of all measured endpoints can be found at Developmental toxicity zebrafish phenotype atlas. […] Each endpoint was scored as a binary presence/absence and scores were compiled into an “Any effect” endpoint, the presence of abnormality in any individual endpoint.
The Any effect percent was used to calculate the BMC50, 50 % change relative to the background for each endpoint and chemical. All values were reported as the nominal exposure concentration.

[3] = system: lung tissue; conditions: compared to naphthalene and monomethylated derivatives, ref Honda et al., 1990, cited from earlier work
[4] = system: zebrafish embryos; conditions: 96-well, cited from earlier work
[5] = system: zebrafish embryos; experiment: Body burden measurement (GC-MS/MS) and concentration uptake ratio, vial exposure; assay type: in vivo, Danio rerio; conditions: for measured concentration in embryo extract: 20 μM exposure, 32 pooled embryos, 0.5 mL extract, single replicates; for nmol/embryo per nmol available / nmol/embryo: Current study, vial, 20 μM; for nmol/embryo: single chemical
Description: (§2) Body burden was measured for exposure to five chemicals at two timepoints: 24 and 48 hpf. […] The exposure concentration was chosen as it was the maximum possible concentration that ensured enough viable animals for collection at 48 hpf and allowed direct comparison of chemical uptake at the same exposure concentration.
(§3) Chemicals were exposed at 20 μM following the exposure procedure detailed in section 1.3, 24 vials per chemical. At 24 hpf, embryos were pooled in groups of 32 embryos (combining embryos from 4 vials) into 1.5 mL polypropylene RINO-safe lock tubes (n = 3 per chemical treatment, n = 3 per control). Tubes were briefly placed on ice to reduce embryo movement (<1 min); the remaining medium was removed; the tube was then flash frozen in liquid nitrogen and stored at −20 °C until extraction. Embryos in the remaining vials were plated as previously described in section 1.3 until collection at 48 hpf following the same procedure as 24 hpf collections (n = 3 per chemical treatment, n = 1 control).
(§4) Tissue extraction was performed as previously reported ([Rude et al., 2025]). Each sample was spiked with 25 μL internal standard in ethyl acetate and 100 μL of 1 mm glass beads (Next Advance, Troy, NY United States) were added to the RINO-safe lock tubes containing thawed tissue samples and left on ice for 10 min 250 mg of Na2SO4 and 200 μL of ethyl acetate were added to each tube and vortexed. Tubes were homogenized at speed 8 for 6 min in a Bullet Blender (Next Advance, Troy, NY, United States). 300 μL of ethyl acetate was added to each tube and the homogenization step was repeated until no pieces of non-homogenized fish tissue remained. Samples were then centrifuged for 10 min at 4 °C, 1600g. Sample supernatant (0.5 mL) was collected into amber vials and stored at 4 °C until chemical analysis.
(§5) Samples were analyzed for quantitation and identification of 161 PAHs. The method was performed with an Agilent 7890 gas chromatograph (GC), with a 7000C triple quadrupole mass spectrometer (MS/MS) using an Agilent J&W PAH select (30 m × 250 μm × 0.15 μm GC column). Calibration for each analyte utilized at least a 4-point (range: 4–7, median 6 points, n = 161) curve with R^2 ≥ 0.99. Specific instrument conditions were modified from [Anderson et al. (2015)] and are detailed in Table S3. GC–MS/MS data was analyzed using MassHunter Quantitative Analysis v.B.06.00 SP1 build 6.0.388.1 software (Agilent Corp. Wilmington,DE) ([Anderson et al., 2015]). Dynamic muti-reaction monitoring mode was used during analyses, and all PAHs were identified using analytical standards obtained from multiple sources (Table S1). Collison energies were optimized for each individual unsubstituted PAH, alkylation series (C1, C2, etc.), and when possible, specific alkylation group (i.e. methyl, ethyl, etc.).
(§6) Body burden concentrations based on average embryo wet weight at each timepoint were determined by the equation below. Total measured chemical was calculated from ng/mL concentrations times sample volume (0.5 mL). Bodyburdennmol/mgbw=total measured chemicalnmol/number of fish32×average body weightmg
(§7) Average body weights at 24 hpf and 48 hpf were assumed to be 0.31 mg and 0.26 mg, respectively as determined previously ([Rericha et al., 2024]). Statistical analysis to compare time points within chemicals was performed using a two-sided Student’s t-test (p-value ≤ 0.05). An ANOVA with a follow-up Dunn’s test was used to compare body burden between chemicals at 24 hpf (p-value ≤ 0.05). Body burden concentrations at 24 hpf were compared to the estimated percent effect of each measured chemical at the exposure concentration used for body burden analysis (20 μM). These estimates were made using the fitted concentration-response curves previously described in section 2.3.2.2.
(§8) Concentration uptake ratios between vial exposures and 96-well plate exposures were compared using a two-sided Student’s t-test, p-values ≤ 0.05 were considered significant. […]

[6] = as above; assay type: in vivo, Danio rerio; conditions: zebrafish (Danio rerio), whole embryos (32 pooled, ethyl acetate extract), other: waterborne exposure of embryos in sealed vials, 20 μM exposure, 32 pooled embryos, 0.5 mL extract, single replicates, read-out: measured concentration in embryo extract
Description: as §2, §3, §4, §5, §6, §7, §8

[7] = period dark, round 1, conc 3.125
[8] = period dark, round 1, conc 6.25
[9] = period dark, round 1, conc 12.5
[10] = period light, round 1, conc 3.125
[11] = period light, round 1, conc 6.25
[12] = period light, round 1, conc 12.5
[13] = 24 hpf, 2.6 μM, mixture, ref Rude et al 2025
[14] = 48 hpf, 2.6 μM, mixture, ref Rude et al 2025

In the case of `CC(C)c1ccc2cc(C(C)C)ccc2c1` [2,6-diisopropylnaphthalene], the fold_change [1, 7] is reported as -0.1214, the fold_change [1, 8] is reported as 0.07359 and the fold_change [1, 9] is reported as -0.001373. The fold_change ([1]; period dark, round 1, conc 25) was -0.09025, the fold_change ([1]; period dark, round 1, conc 50) was -0.07941 and the fold_change [1, 10] was -0.5097. For the same compound, the fold_change [1, 11] was -1.08, the fold_change [1, 12] was -0.05494 and the fold_change ([1]; period light, round 1, conc 25) was -0.2588. For the same compound, the fold_change ([1]; period light, round 1, conc 50) was -0.8125, the “morphological effects (BMC50 for any morphological endpoint)” value [2] was “lack of activity” and the “toxicity / lung tissue damage in mice” value [3] was “minimal damage to lung tissue”. The “toxicity / lung tissue damage in mice” value ([3]; listed as 2,6-diidopropylnaphthalene) was “minimally active”.

`CC(C)c1ccc2ccccc2c1` [2-isopropylnaphthalene] showed a fold_change [1, 7] of -0.04413, a fold_change [1, 8] of -0.6849 and a fold_change [1, 9] of -1.554. For the same compound, the fold_change ([1]; period dark, round 2, conc 12.8) was -0.9379, the fold_change ([1]; period dark, round 2, conc 16) was -1.368 and the fold_change ([1]; period dark, round 2, conc 20) was -1.899. It also gave a fold_change [1, 10] of 0.2872, a fold_change [1, 11] of 0.3099 and a fold_change [1, 12] of 1.277. The fold_change ([1]; period light, round 2, conc 12.8) was -0.1327, the fold_change ([1]; period light, round 2, conc 16) was -0.2493 and the fold_change ([1]; period light, round 2, conc 20) was 0.1913. The “BMC50 MO24 (mortality at 24 hpf)” value ([2]; Fig. 2, nominal concentration) was 29.9 µM, the “BMC50 MORT (mortality at 120 hpf)” value ([2]; Fig. 2, nominal concentration) was 25.2 µM and the “BMC50 Any effect” value ([2]; Fig. 2 heatmap, nominal concentration, exposure 6-24 hpf in vials, summary of all endpoints) was 19.8 µM. For the same compound, the “any effect BMD50” value ([2]; SI-T5) was 19.85 µM, the “bmd, MO24” value ([2]; endpoint MO24, benchmark dose) was 29.9264 and the “bmdL, MO24” value ([2]; endpoint MO24, lower limit of benchmark dose) was 27.6751. The “bmdU, MO24” value ([2]; endpoint MO24, upper limit of benchmark dose) was 32.9501, the “bmd, MORT” value ([2]; endpoint MORT, benchmark dose) was 25.1507 and the “bmdL, MORT” value ([2]; endpoint MORT, lower limit of benchmark dose) was 24.3232. For the same compound, the “bmdU, MORT” value ([2]; endpoint MORT, upper limit of benchmark dose) was 26.3204, the “bmd, ANY_” value ([2]; morphology endpoint ANY_, benchmark dose) was 19.8483 and the “bmdL, ANY_” value ([2]; morphology endpoint ANY_, lower limit of benchmark dose) was 18.4734. The “bmdU, ANY_” value ([2]; morphology endpoint ANY_, upper limit of benchmark dose) was 21.3892 and the “toxicity / lung tissue damage in mice” value [3] was “minimally active”.

In the case of `c1ccc2ccccc2c1` [naphthalene], the “mean nmol/embryo per nmol available” value [4, 13] is given as 0.004595, the nmol/embryo [4, 13] is given as 0.001159 nmol/embryo and 0.001224 nmol/embryo and 0.001235 nmol/embryo and the “nmol/embryo per nmol available” value [4, 13] is given as 0.00446 and 0.00471 and 0.004751. The nmol/embryo [4, 14] was 0.0007856 nmol/embryo and 0.00092 nmol/embryo and 0.0008366 nmol/embryo and 0.0008192 nmol/embryo, the “nmol/embryo per nmol available” value [4, 14] was 0.003022 and 0.003538 and 0.003218 and 0.003151 and the nmol/embryo ([4]; 48 hpf, 5.39 μM, single chemical, ref Geier et al 2018) was 0.0007734 nmol/embryo and 0.0007422 nmol/embryo and 0.000789 nmol/embryo. The “nmol/embryo per nmol available” value ([4]; 48 hpf, 5.39 μM, ref Geier et al 2018) was 0.001435 and 0.001377 and 0.001464, the nmol/embryo ([4]; 48 hpf, 11.6 μM, single chemical, ref Geier et al 2018) was 0.001794 nmol/embryo and 0.001746 nmol/embryo and 0.001648 nmol/embryo and the “nmol/embryo per nmol available” value ([4]; 48 hpf, 11.6 μM, ref Geier et al 2018) was 0.001547 and 0.001505 and 0.001421. For the same compound, the nmol/embryo ([4]; 48 hpf, 25 μM, single chemical, ref Geier et al 2018) was 0.002233 nmol/embryo and 0.002584 nmol/embryo and 0.002516 nmol/embryo, the “nmol/embryo per nmol available” value ([4]; 48 hpf, 25 μM, ref Geier et al 2018) was 0.0008933 and 0.001034 and 0.001006 and the “measured concentration in embryo extract” value ([5]; 24 hpf) was 4400 ng/mL and 5130 ng/mL. The “measured concentration in embryo extract” value ([5]; 48 hpf) was 66.9 ng/mL and 62 ng/mL, the “nmol/embryo per nmol available” value ([5]; 24 hpf) was 0.1585 and 0.1073 and 0.1251 and the nmol/embryo ([5]; 24 hpf) was 0.7924 nmol/embryo and 0.5364 nmol/embryo and 0.6254 nmol/embryo. For the same compound, the “nmol/embryo per nmol available” value ([5]; 48 hpf) was 0.001843 and 0.001631 and 0.001512, the nmol/embryo ([5]; 48 hpf) was 0.009216 nmol/embryo and 0.008156 nmol/embryo and 0.007558 nmol/embryo and the concentration at 24 hpf, 20 μM ([6]; 24 hpf) was 6500 ng/mL. For the same compound, the concentration at 48 hpf, 20 μM ([6]; 48 hpf) was 75.6 ng/mL and the “morphological effects (BMC50 for any morphological endpoint)” value [2] was “no morphological BMC50 values”.
